Measurements from publication PMC6469291, “2-Nitroimidazole-Furanoside Derivatives for Hypoxia Imaging—Investigation of Nucleoside Transporter Interaction, ^18F-Labeling and Preclinical PET Imaging” (Pharmaceuticals, 2019).

Key:
CT26 colon carcinoma = assay: PET hypoxia imaging of CT26 colon carcinoma bearing mice; assay type: in vivo, BALB/c mice; details: for tumor uptake: hypoxic CT26 tumor tissue; for tumor uptake / muscle uptake: PET; for tumor-to-muscle ratio (TMR): i.v., CT26 tumor vs. shoulder muscle, mean ± SD; for muscle uptake: normoxic muscle tissue
Procedure: The above-described CT26 mouse colon carcinoma cells were subcutaneously inoculated in the right shoulder of female BALB/c mice (1 × 10^6 cells in phosphate-buffered saline, PBS). Subsequently, the carcinomas were allowed to grow for a period of 13 days, reaching approximately 0.3 cm3. […] All animal experiments were conducted according to guidelines for the use and care of laboratory research animals under the German Animal Protection Law, and approved by local authorities (Regierungspräsidium Tübingen). […] All experiments were done using medical air as carrier gas for isoflurane anesthesia (1.5% isoflurane during PET scans, flow rate 0.4 L/min), including tracer injections, with a specialized vaporizer ([…], Louisville, KY, USA). Subsequent to the tracer injections, the animals were allowed to freely move in their home cages for an uptake period of 55 min, thus, breathing room air. […] PET scans were performed with a Siemens Inveon dedicated PET (DPET, Siemens Healthcare, Knoxville, TN, USA). PET scans were then reconstructed with a two-dimensional ordered subset expectation maximization algorithm (OSEM2D with 16 subsets and 4 iterations). Image zoom was set to 1 and matrix size to 128 × 128 yielding a final PET image spatial resolution of 0.79 × 0.79 × 0.80 mm3. PET data were manually corrected for radioactive decay of ^18F. PET image analysis was performed using the PMOD 3.2_base 64 image viewing tool (PMOD Technologies, Zürich, Switzerland). […] Finally, PET data were expressed as percent injected dose per cubic-centimeter (%ID/cc) or tumor-to-muscle ratio (TMR).

hENT2 (SLC29A2) = target: T1, hENT2 (SLC29A2) (Homo sapiens, UniProt Q14542); assay: Inhibition of [^3H]uridine uptake in yeast cells producing recombinant hENT2; assay type: cell-based
T1 construct: expressed in transfected cells; host or cells: Saccharomyces cerevisiae
T1 sequence (Q14542 1-456): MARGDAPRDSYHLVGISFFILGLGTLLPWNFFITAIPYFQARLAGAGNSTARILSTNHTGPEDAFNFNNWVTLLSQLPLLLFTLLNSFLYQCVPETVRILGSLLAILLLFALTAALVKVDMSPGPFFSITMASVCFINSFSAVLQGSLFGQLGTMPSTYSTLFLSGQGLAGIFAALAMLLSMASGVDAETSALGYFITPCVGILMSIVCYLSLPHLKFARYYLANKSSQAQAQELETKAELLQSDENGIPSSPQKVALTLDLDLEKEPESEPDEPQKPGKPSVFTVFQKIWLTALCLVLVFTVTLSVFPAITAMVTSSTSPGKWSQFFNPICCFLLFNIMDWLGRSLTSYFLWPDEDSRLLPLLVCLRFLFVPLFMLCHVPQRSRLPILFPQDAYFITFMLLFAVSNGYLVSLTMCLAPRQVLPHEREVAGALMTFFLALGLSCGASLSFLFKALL
Procedure: (§1) The interaction of 2-nitroimidazole sugars with nucleoside transporters was determined by ability of the 2-nitroimidazole sugars to inhibit [^3H]uridine uptake in yeast cells producing recombinant human nucleoside transporters and results expressed as IC50 values.
(§2) Saccharomyces cerevisiae yeast was separately transformed with plasmids (pYPhENT1, pYPhENT2, pYPhCNT1, pYPhCNT2, or pYPhCNT3) encoding hNTs (hENT1, hENT2, hCNT1, hCNT2, or hCNT3, respectively) as described elsewhere. Uptake of 1 µmol/L [^3H]uridine (Moravek Biochemicals) into yeast was measured as previously described using a semi-automated cell harvester (Micro96 HARVESTER; Skatron Instruments, Tranby, Norway). Yeast was incubated at room temperature with 1 µmol/L [^3H]uridine in yeast growth media (pH 7.4) in the presence or absence (uninhibited controls) of graded concentrations (0–3 mM) of test compounds. The following compounds were used for transporter experiments: FAZA, β-FAZA, α-FAZDR, β-FAZDR. Uridine self-inhibition was used to determine maximum inhibition of mediated transport. Concentration–effect curves were subjected to nonlinear regression analysis using Prism software (version 4.03; GraphPad Software Inc.) to obtain the concentration of test compound that inhibited uridine uptake by 50%, relative to that of untreated cells (IC50 values). Each IC50 value determination was conducted with nine concentrations and four replicates per concentration and experiments were repeated two to three times.

hCNT1 (SLC28A1) = target: T2, hCNT1 (SLC28A1) (Homo sapiens, UniProt O00337); assay: Inhibition of [^3H]uridine uptake in yeast cells producing recombinant hCNT1; assay type: cell-based
T2 construct: expressed in transfected cells; host or cells: Saccharomyces cerevisiae
T2 sequence (O00337 1-649): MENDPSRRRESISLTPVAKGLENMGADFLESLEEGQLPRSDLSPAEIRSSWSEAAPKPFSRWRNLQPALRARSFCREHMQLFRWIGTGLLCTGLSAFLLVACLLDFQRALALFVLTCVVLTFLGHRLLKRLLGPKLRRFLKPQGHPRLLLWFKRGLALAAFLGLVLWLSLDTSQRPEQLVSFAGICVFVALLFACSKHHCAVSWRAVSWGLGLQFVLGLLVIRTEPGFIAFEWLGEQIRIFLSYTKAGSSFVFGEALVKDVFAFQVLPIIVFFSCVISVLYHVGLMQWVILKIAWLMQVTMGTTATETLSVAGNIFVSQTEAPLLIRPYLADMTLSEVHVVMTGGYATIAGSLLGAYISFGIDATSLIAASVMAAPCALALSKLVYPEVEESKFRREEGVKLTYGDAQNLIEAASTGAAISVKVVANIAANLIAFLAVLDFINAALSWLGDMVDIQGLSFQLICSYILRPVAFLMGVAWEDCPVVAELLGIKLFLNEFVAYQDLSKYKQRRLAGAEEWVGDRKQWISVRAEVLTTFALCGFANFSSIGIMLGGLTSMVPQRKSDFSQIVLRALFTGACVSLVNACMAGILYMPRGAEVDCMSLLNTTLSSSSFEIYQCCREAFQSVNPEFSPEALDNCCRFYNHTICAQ
Procedure: as §1, §2

hCNT3 (SLC28A3) = target: T3, hCNT3 (SLC28A3) (Homo sapiens, UniProt Q9HAS3); assay: Inhibition of [^3H]uridine uptake in yeast cells producing recombinant hCNT3; assay type: cell-based
T3 construct: expressed in transfected cells; host or cells: Saccharomyces cerevisiae
T3 sequence (Q9HAS3 1-691): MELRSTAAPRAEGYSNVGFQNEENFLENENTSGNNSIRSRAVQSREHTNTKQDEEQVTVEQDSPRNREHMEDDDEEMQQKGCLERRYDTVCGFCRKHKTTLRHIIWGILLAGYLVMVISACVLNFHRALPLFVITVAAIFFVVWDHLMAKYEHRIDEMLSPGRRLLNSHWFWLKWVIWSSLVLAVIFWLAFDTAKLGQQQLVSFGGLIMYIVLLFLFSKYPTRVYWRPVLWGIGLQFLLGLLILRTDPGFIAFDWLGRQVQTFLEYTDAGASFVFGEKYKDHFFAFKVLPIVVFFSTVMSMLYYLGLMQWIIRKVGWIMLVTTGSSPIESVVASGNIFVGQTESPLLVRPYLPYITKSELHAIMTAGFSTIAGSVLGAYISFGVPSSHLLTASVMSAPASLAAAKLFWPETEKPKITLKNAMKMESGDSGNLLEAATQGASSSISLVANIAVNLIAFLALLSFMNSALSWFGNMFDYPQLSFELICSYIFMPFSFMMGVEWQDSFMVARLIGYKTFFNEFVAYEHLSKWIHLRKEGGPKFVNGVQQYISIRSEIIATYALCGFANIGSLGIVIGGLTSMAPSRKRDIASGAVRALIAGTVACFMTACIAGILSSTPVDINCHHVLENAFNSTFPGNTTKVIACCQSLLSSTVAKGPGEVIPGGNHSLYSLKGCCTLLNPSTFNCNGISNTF
Procedure: as §1, §2

| IC50 (hENT2 (SLC29A2)) | IC50 (hCNT1 (SLC28A1)) | IC50 (hCNT3 (SLC28A3)) | tumor uptake (CT26 colon carcinoma; 3 h p.i.) | muscle uptake (CT26 colon carcinoma; 3 h p.i.) | SMILES | tumor uptake (CT26 colon carcinoma; 1 h p.i.) | tumor-to-muscle ratio (TMR) (CT26 colon carcinoma; 1 h p.i.) | muscle uptake (CT26 colon carcinoma; 1 h p.i.) | muscle clearance (CT26 colon carcinoma; 2 h p.i. relative to 1 h p.i.) | tumor clearance (CT26 colon carcinoma; 2 h p.i. relative to 1 h p.i.) | clearance ratio for tumor relative to muscle tissue (CT26 colon carcinoma; 3 h p.i.) | muscle clearance (CT26 colon carcinoma; 3 h p.i. relative to 1 h p.i.) | tumor clearance (CT26 colon carcinoma; 3 h p.i. relative to 1 h p.i.) |
| --- | --- | --- | --- | --- | --- | --- | --- | --- | --- | --- | --- | --- | --- |
| – | – | – | – | – | O=[N+]([O-])c1nccn1CC(O)C[18F] (stereo not drawn) [[^18F]FMISO, reference compound] | 2.49 ± 0.88 %ID/cc | 1.37 ± 0.11 | 1.81 ± 0.58 %ID/cc | 37.2 ± 4.3% | 11.8 ± 6.5% | 0.45 ± 0.17 | 58.6 ± 3.3% | 26.9 ± 10.1% |
| > 3000 µM | 269 ± 4 µM | 124 ± 33 µM | – | – | O=[N+]([O-])c1nccn1C1CC(O)C(CF)O1 (stereo not drawn) [β-FAZDR] | – | – | – | – | – | – | – | – |
| – | – | – | 0.88 ± 0.42 %ID/cc | 0.31 ± 0.15 %ID/cc | O=[N+]([O-])c1nccn1[C@@H]1C[C@H](O)[C@@H](C[18F])O1 [α-[^18F]FAZDR, 1′-α-[2′,5′-dideoxy-5′-[^18F]fluoro-D-ribofuranosyl]-2-nitroimidazole] | 1.90 ± 0.48 %ID/cc | 1.93 ± 0.39 | 1.01 ± 0.32 %ID/cc | 53.3 ± 8.3% | 34.2 ± 7.5% | 0.79 ± 0.12 | 70.3 ± 5.5% | 55.3 ± 8.3% |
